Values of other authors as cited in PMC3563429 (Journal of the American Chemical Society, 2013).
pIC50: −log10 of the molar value.

Tested on: human calpain protease 1
Conditions: for inhibitory action against the cysteine protease calpain 1: described in the patent literature; for pIC50: read-out: IC50 against human calpain protease 1, previously reported

| pIC50 | Molecule | inhibitory action against the cysteine protease calpain 1 |
| --- | --- | --- |
| 7.10 | CCCCCC/C=C\CC(=O)N[C@@H](Cc1ccc(O)cc1)[C@@H](O)CC(=O)N[C@H](C(=O)N[C@@H](CO)[C@@H](O)CC(=O)N[C@H](C(=O)N[C@@H]1C=CC(=O)N[C@@H](C(C)C)C(=O)N(C)[C@@H](Cc2ccc(O)cc2)C(=O)OC1)C(C)C)C(C)C [Compound 12, thalassospiramide B1] | nanomolar inhibitory action |
| 7.41 | Thalassospiramide D1 [Thalassospiramide D1 (15)] | nanomolar inhibitory action |
